Data on 25 compounds can be found in patent US20140357579A1, “SYNTHETIC PEPTIDE AMIDES AND DIMERS THEREOF” (priority 2006, published 2014).

Like-named read-outs stand apart in the source and are kept apart here. Bridge positions count the residues as written; N and C are the ends. Square brackets hold non-standard residues; d marks the D form. Side chains are listed from the residue outwards. Peptide text beside a SMILES is read from it. I, II: the chains in the order shown. dAgb = N=C(N)NCC[C@@H](N)C(=O)O; dAgp = N=C(N)NC[C@@H](N)C(=O)O; dNle = CCCC[C@@H](N)C(=O)O; dOrn = NCCC[C@@H](N)C(=O)O; Api = NC1(C(=O)O)CCNCC1; Inp = O=C(O)C1CCNCC1

The target in assay [1] is T1, mouse kappa opioid receptor (mKOR) (Mus musculus, UniProt P33534).
T1 construct: a mouse thymoma cell line that expresses only the kappa-opioid receptor and no other opioid receptor subtype; host or cells: R1.G1 mouse thymoma cells
T1 sequence (P33534 whole entry): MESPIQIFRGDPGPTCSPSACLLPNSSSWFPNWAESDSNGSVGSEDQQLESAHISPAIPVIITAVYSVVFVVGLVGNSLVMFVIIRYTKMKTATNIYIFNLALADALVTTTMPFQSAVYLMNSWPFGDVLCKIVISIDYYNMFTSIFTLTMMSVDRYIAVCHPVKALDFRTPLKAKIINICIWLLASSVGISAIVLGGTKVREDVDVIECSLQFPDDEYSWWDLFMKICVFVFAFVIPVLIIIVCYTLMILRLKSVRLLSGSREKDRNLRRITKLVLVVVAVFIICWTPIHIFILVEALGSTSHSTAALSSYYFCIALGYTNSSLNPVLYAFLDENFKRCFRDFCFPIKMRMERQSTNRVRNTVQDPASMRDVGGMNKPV
Kind of assay: Inhibition of forskolin-stimulated cAMP production in R1.G1 cells (TR-FRET cAMP immunoassay). Format: cell-based. Particulars: for EC50: inhibition of forskolin-stimulated cAMP. Background: Cyclic AMP is a second messenger, typically raised through Gs and lowered through Gi signalling.

In assay [2] the target is T2, human kappa opioid receptor (hKOR) (Homo sapiens, UniProt P41145).
T2 construct: expressed in transfected cells; host or cells: HEK-293 cells (ATCC), transient transfection with pcDNA3-hOPRK1
T2 sequence (P41145 whole entry): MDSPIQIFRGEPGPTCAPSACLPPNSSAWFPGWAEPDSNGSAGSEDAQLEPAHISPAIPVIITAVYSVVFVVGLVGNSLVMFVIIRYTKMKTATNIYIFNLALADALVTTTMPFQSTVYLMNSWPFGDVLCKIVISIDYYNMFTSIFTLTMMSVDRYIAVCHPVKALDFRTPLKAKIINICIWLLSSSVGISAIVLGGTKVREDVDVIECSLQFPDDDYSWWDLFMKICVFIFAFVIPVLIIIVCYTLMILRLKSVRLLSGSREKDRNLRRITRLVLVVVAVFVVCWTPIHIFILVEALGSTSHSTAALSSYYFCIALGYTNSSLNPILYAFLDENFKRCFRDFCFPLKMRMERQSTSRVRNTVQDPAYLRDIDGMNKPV
Kind of assay: NFAT-luciferase reporter assay in HEK-293 cells transfected with human kappa opioid receptor and chimeric G-protein. The class given is cell-based. Particulars: for hKOR Efficacy(%) / Emax: percent maximal activation compared to full induction by known kappa agonists; for EC50: transfected HEK-293 cells, luciferase reporter, read-out: hKOR EC50; for Emax: HEK293, read-out: hKOR Efficacy(%). For orientation: A reporter such as luciferase makes a cellular process visible.

Setting [3] is: R1.G1 cells, read-out: mKOR EC50.
[4] abbreviates: R1.G1 cells, read-out: mKOR Efficacy(%).
[5] abbreviates: read-out: mKOR Efficacy(%), R1.G1 cells.

`CC(C)C[C@@H](NC(=O)[C@@H](Cc1ccccc1)NC(=O)[C@H](N)Cc1ccccc1)C(=O)N[C@H](CCCN)C(=O)NCCN1CCN(CC(=O)O)CC1` [Compound 1, D-Phe-D-Phe-D-Leu-D-Orn-[4-(2-aminoethyl)-1-carboxymethyl-piperazine]-OH]: the “mKOR Efficacy(%)” value in assay [1] (R1.G1 cells) is listed as 98%. For the same compound, in assay [2], the “hKOR Efficacy(%)” value was found to be 102% and the EC50 worked out at 0.49 nM.
The like results for `CC(C)C[C@@H](NC(=O)[C@@H](Cc1ccccc1)NC(=O)[C@H](N)Cc1ccccc1)C(=O)N[C@H](CCCN)C(=O)N1CCC(CC(=O)O)CC1` [Compound 2, D-Phe-D-Phe-D-Leu-D-Orn-[4-Carboxymethyl-piperidine]-OH] were, in that order, 97%, 99% and 0.13 nM.
For `CCCC[C@@H](NC(=O)[C@@H](Cc1ccccc1)NC(=O)[C@H](N)Cc1ccccc1)C(=O)N[C@H](CCCNC(=N)N)C(=O)N1CCC[C@@H]1C(=O)O` [Compound 3, D-Phe-D-Phe-D-Nle-D-Arg-D-Pro-OH] (H-[dF][dF][dNle][dR][dP]-OH; N-terminus assumed), the “mKOR Efficacy(%)” value in assay [1] (R1.G1 cells) is on record as 88%.
Same read-out and setting: the result for `CC(C)C[C@@H](NC(=O)[C@@H](Cc1ccccc1)NC(=O)[C@H](N)Cc1ccccc1)C(=O)N[C@H](CCCN)C(=O)N[C@@H]1CN[C@H](C(=O)O)C1` [Compound 5, D-Phe-D-Phe-D-Leu-D-Orn-[(2S,4S)-4-Amino-pyrrolidine-2-carboxylic acid]-OH] reads 96%.
For the compound `CC(C)C[C@@H](NC(=O)[C@@H](Cc1ccccc1)NC(=O)[C@H](N)Cc1ccccc1)C(=O)N[C@H](CCCN)C(=O)N1CCC(N)(C(=O)O)CC1` [Compound 6, D-Phe-D-Phe-D-Leu-D-Orn-[omega(4-Aminopiperidine-4-carboxylic acid)]-OH], the “mKOR Efficacy(%)” value in assay [1] (R1.G1 cells) was 100%. Further, in assay [2], the “hKOR Efficacy(%)” value came to 107% and the EC50 turned out to be 0.17 nM.
The like results for `CC(C)C[C@@H](NC(=O)[C@@H](Cc1ccccc1)NC(=O)[C@H](N)Cc1ccccc1)C(=O)N[C@H](CCCN)C(=O)N1CCC(CC(N)C(=O)O)CC1` (stereo partly drawn) [Compound 7, D-Phe-D-Phe-D-Leu-D-Orn-[ω(D/L-2-Amino-3-(4-N-piperidinyl)propionic acid)]-OH] were, in that order, 102%, 104% and 0.14 nM.
The matching figures for `CC(C)C[C@@H](NC(=O)[C@@H](Cc1ccccc1)NC(=O)[C@H](N)Cc1ccccc1)C(=O)N[C@H](CCCN)C(=O)N1CCNC(C(=O)O)C1` (stereo partly drawn) [Compound 8, D-Phe-D-Phe-D-Leu-D-Orn-[omega(D/L-piperazine-2-carboxylic acid)]-OH]: 102%, 93% and 0.16 nM.
Consider `CC(C)C[C@@H](NC(=O)[C@@H](Cc1ccccc1)NC(=O)[C@H](N)Cc1ccccc1)C(=O)N[C@H](CCCN)C(=O)N1CCC(C(=O)O)CC1` [Compound 9, D-Phe-D-Phe-D-Leu-D-Orn-[Isonipecotic acid]-OH] (H-[dF][dF][dL][dOrn][Inp]-OH; N-terminus assumed), for which the “mKOR Efficacy(%)” value in assay [1] (R1.G1 cells) is 92%. Further, in assay [2], the Emax turned out to be 134% and the EC50 was determined as 0.39 nM.
Consider `CC(C)C[C@@H](NC(=O)[C@@H](Cc1ccccc1)NC(=O)[C@H](N)Cc1ccccc1)C(=O)N[C@H](CCCN)C(=O)N1CCC(N2CCC[C@H]2C(=O)O)CC1` [Compound 10, D-Phe-D-Phe-D-Leu-D-Orn-[N-(4-piperidinyl)-L-proline]-OH], for which the “mKOR Efficacy(%)” value in assay [1] (R1.G1 cells) is listed as 99%. In assay [2], the “hKOR Efficacy(%)” value is recorded as 92% and the EC50 was found to be 0.12 nM.
For `CC(C)C[C@@H](NC(=O)[C@@H](Cc1ccccc1)NC(=O)[C@H](N)Cc1ccccc1)C(=O)N[C@H](CCCN)C(=O)N1CCCNCC1` [Compound 11, D-Phe-D-Phe-D-Leu-D-Orn-[homopiperazine amide]], in assay [1] (R1.G1 cells), the “mKOR Efficacy(%)” value is 100%. In addition, in assay [2], the Emax was determined as 90% and the 50% effective concentration (EC50) is 0.12 nM.
The matching figures for `CC(C)C[C@@H](NC(=O)[C@@H](Cc1ccccc1)NC(=O)[C@H](N)Cc1ccccc1)C(=O)N[C@H](CCCN)C(=O)N1CCC(CCCC(=O)O)CC1` [Compound 12, D-Phe-D-Phe-D-Leu-D-Orn-[4-(4-piperidinyl)-butanoic acid]-OH]: 100%, 99% and 0.3 nM.
`CC(C)C[C@@H](NC(=O)[C@@H](Cc1ccccc1)NC(=O)[C@H](N)Cc1ccccc1)C(=O)N[C@H](CCCN)C(=O)NCCN1CCN(CC(N)=O)CC1` [Compound 13, D-Phe-D-Phe-D-Leu-D-Orn-[4-(2-aminoethyl)-1-carboxymethyl-piperazine]-NH2]: the “mKOR Efficacy(%)” value in assay [1] (R1.G1 cells) turned out to be 96%. Moreover, the “hKOR Efficacy(%)” value in assay [2] amounted to 96%.
With `CC(C)C[C@@H](NC(=O)[C@@H](Cc1ccccc1)NC(=O)[C@H](N)Cc1ccccc1)C(=O)N[C@H](CCCN)C(=O)NC1CCN(CC(N)=O)CC1` [Compound 15, D-Phe-D-Phe-D-Leu-D-Orn-[4-Amino-1-carboxymethyl-piperidine]-NH2], the “mKOR Efficacy(%)” value in assay [1] (R1.G1 cells) is reported as 93%.
Still for that read-out and setting: as for `CNCCC[C@@H](NC(=O)[C@@H](CC(C)C)NC(=O)[C@@H](Cc1ccccc1)NC(=O)[C@H](N)Cc1ccccc1)C(=O)N1CCCN(C(=N)N)CC1` [Compound 21, D-Phe-D-Phe-D-Leu-(δ-Me)D-Orn-[4-Amidinohomopiperazine amide]], the figure is 97%; as for `CC(C)C[C@@H](NC(=O)[C@@H](Cc1ccccc1)NC(=O)[C@H](N)Cc1ccccc1)C(=O)N[C@H](CCCNC(C)C)C(=O)N1CCCN(C(=N)N)CC1` [Compound 22, D-Phe-D-Phe-D-Leu-(δ-iPr)D-Orn-[4-Amidinohomopiperazine amide]], 97%.
On to `CNCCC[C@@H](NC(=O)[C@@H](CC(C)C)NC(=O)[C@@H](Cc1ccccc1)NC(=O)[C@H](N)Cc1ccccc1)C(=O)N1CCCNCC1` [Compound 23, D-Phe-D-Phe-D-Leu-(-Me)D-Orn-[homopiperazine amide]], for which the “mKOR Efficacy(%)” value in assay [1] (R1.G1 cells) is listed as 95%.
The same measure, in the same setting: as for `CC(C)C[C@@H](NC(=O)[C@@H](Cc1ccccc1)NC(=O)[C@H](N)Cc1ccccc1)C(=O)N[C@H](CCCNC(C)C)C(=O)N1CCCNCC1` [Compound 24, D-Phe-D-Phe-D-Leu-(6-iPr)D-Orn-[homopiperazine amide]], the figure is 96%.
For the compound `CC(C)C[C@@H](N)C(=O)N[C@H](CCCN)C(=O)N[C@@H](CCCCNC(=O)[C@@H](CCCN)NC(=O)[C@@H](CC(C)C)NC(=O)[C@@H](Cc1ccccc1)NC(=O)[C@H](N)Cc1ccccc1)C(=O)O` [Compound 39, D-Phe-D-Phe-D-Leu-D-Orn-[eLys(D-Orn-D-Leu-H)]-OH], the EC50 in assay [1] (setting [3]) was 67.3 nM. In addition, the Emax in assay [1] (setting [4]) is 35%.
With `CC(C)C[C@@H](N)C(=O)N[C@H](CCCN)C(=O)N[C@H](CCCCNC(=O)[C@@H](CCCN)NC(=O)[C@@H](CC(C)C)NC(=O)[C@@H](Cc1ccccc1)NC(=O)[C@H](N)Cc1ccccc1)C(=O)O` [Compound 46], the EC50 in assay [1] (setting [3]) came out at 0.12 nM. In assay [1] (setting [4]), the Emax was determined as 95%.
Consider `CC(C)C[C@@H](NC(=O)[C@H](N)Cc1ccccc1)C(=O)N[C@H](CCCN)C(=O)N[C@H](CCCCNC(=O)[C@@H](CCCN)NC(=O)[C@@H](CC(C)C)NC(=O)[C@@H](Cc1ccccc1)NC(=O)[C@H](N)Cc1ccccc1)C(=O)O` [Compound 47], for which, in assay [1] (mKOR EC50 (nM), R1.G1 cells), the EC50 is 0.05 nM. For the same compound, the Emax in assay [1] (setting [5]) turned out to be 91%.
Take `CC(C)C[C@@H](NC(=O)[C@@H](Cc1ccccc1)NC(=O)[C@H](N)Cc1ccccc1)C(=O)N[C@H](CCCN)C(=O)NCCCC[C@@H](NC(=O)[C@@H](CCCN)NC(=O)[C@@H](CC(C)C)NC(=O)[C@@H](Cc1ccccc1)NC(=O)[C@H](N)Cc1ccccc1)C(=O)O` [Compound 48] (H-[dF][dF][dL][dOrn][dK]([dOrn-dL-dF-dF])-OH): the EC50 in assay [1] (mKOR EC50 (nM), R1.G1 cells) amounted to 0.34 nM. Besides, the Emax in assay [1] (setting [5]) is 85%.
For the compound `CC(C)C[C@@H](NC(=O)[C@@H](Cc1ccccc1)NC(=O)[C@H](N)Cc1ccccc1)C(=O)N[C@H](CCCNC(C)C)C(=O)NC1(C(=O)O)CCN(C(=O)[C@@H](CCCNC(C)C)NC(=O)[C@@H](CC(C)C)NC(=O)[C@@H](Cc2ccccc2)NC(=O)[C@H](N)Cc2ccccc2)CC1` [Compound 49], the Emax in assay [1] (setting [5]) was 50%.
In turn, `CC(C)C[C@@H](NC(=O)[C@@H](Cc1ccccc1)NC(=O)[C@H](N)Cc1ccccc1)C(=O)N[C@H](CNC(=N)N)C(=O)NC1(C(=O)O)CCN(C(=O)[C@@H](CNC(=N)N)NC(=O)[C@@H](CC(C)C)NC(=O)[C@@H](Cc2ccccc2)NC(=O)[C@H](N)Cc2ccccc2)CC1` [Compound 50] (H-[dF][dF][dL][dAgp][Api]([dAgp-dL-dF-dF])-OH) showed a half-maximal effective concentration (EC50) in assay [1] (mKOR EC50 (nM), R1.G1 cells) of 56.7 nM. The Emax in assay [1] (setting [5]) was determined as 77%.
For the compound `CC(C)C[C@@H](NC(=O)[C@@H](Cc1ccccc1)NC(=O)[C@H](N)Cc1ccccc1)C(=O)N[C@H](CCNC(=N)N)C(=O)NC1(C(=O)O)CCN(C(=O)[C@@H](CCNC(=N)N)NC(=O)[C@@H](CC(C)C)NC(=O)[C@@H](Cc2ccccc2)NC(=O)[C@H](N)Cc2ccccc2)CC1` [Compound 51, 1N,4N-bis-(D-Phe-D-Phe-D-Leu-D-Nar)-4amino-4carboxylic piperidine] (H-[dF][dF][dL][dAgb][Api]([dAgb-dL-dF-dF])-OH), the 50% effective concentration (EC50) in assay [1] (mKOR EC50 (nM), R1.G1 cells) came to 95.8 nM. The Emax in assay [1] (setting [5]) came out at 60%.
As for `CC(C)C[C@@H](NC(=O)[C@@H](Cc1ccccc1)NC(=O)[C@H](N)Cc1ccccc1)C(=O)N[C@@H]1CCCCNC(=O)CNC(=O)[C@H](NC(=O)[C@@H](CC(C)C)NC(=O)[C@@H](Cc2ccccc2)NC(=O)[C@H](N)Cc2ccccc2)CCCCNC(=O)CNC1=O` [Compound 52, D-Phe-D-Phe-D-Leu-(D-Lys-GlyLactam)2-D-Leu-D-Phe-D-Phe] (I: H-[dF][dF][dL][dK]G / II: H-[dF][dF][dL][dK]G; amide I:4-II:C, I:C-II:4 (inferred); N-terminus assumed), in assay [1] (setting [5]), the Emax was determined as 76%.

As a reminder, the EC50 is the midpoint of the concentration-response curve.
